These results are taken from US11453660B2, “Androgen receptor and glucocorticoid receptor modulators” (ONCOSTELLAE, S.L., priority 2017, dated 2022).

Bounds are passed on as bounds.

In this assay the target is T1, Rat Androgen Receptor (Rattus norvegicus, UniProt P15207).
T1 construct: purchased Life Technologies A15880
T1 sequence (P15207 646-902 limits assumed): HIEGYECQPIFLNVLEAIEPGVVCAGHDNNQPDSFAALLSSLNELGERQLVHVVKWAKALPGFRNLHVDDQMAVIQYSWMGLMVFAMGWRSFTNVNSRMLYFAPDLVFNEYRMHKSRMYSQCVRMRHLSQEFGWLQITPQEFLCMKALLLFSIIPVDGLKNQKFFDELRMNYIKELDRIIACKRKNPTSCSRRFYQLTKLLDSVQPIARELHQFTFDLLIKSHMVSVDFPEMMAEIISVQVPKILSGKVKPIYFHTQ
In words: Rat Androgen Receptor Binding (polarscreen AR competitor assay, fluorescence polarization). Conditions: displacement of Fluormone AL Green, 4 hours at RT, read-out: AR rat-fluorimetric. The method, boiled down: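 Fluorescence-polarization competition of Fluormone AL Green binding to rat androgen receptor; compounds screened in duplicate at 1 and 10 μM, 4 h at RT, read at λexc 485/λem 535 nm. IC50 from 1:10 dilution series, 10 μM to 0.1 nM, in 1× buffer.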
A general note: In fluorescence polarisation assays a small probe gives low polarisation when free and higher when bound to something large.
With `COC(=O)C1=C(C2CC2)NC(C)=C(C(C)=O)C1c1csc2ncccc12` (stereo not shown) [Example J23, Methyl 5-acetyl-2-cyclopropyl-6-methyl-4-(thieno[2,3-b]pyridin-3-yl)-1,4-dihydropyridine-3-carboxylate], the IC50 is under 100 nM.

In the case of `CC(=O)C1=C(C)NC(C)=C(C(=O)OCC2CCOCC2)C1c1csc2ccccc12` (stereo not shown) [Example C2, (Tetrahydro-2H-pyran-4-yl)methyl 5-acetyl-4-(benzo[b]thiophen-3-yl)-2,6-dimethyl-1,4-dihydropyridine-3-carboxylate], the IC50 fell in the range of 100 to 1000 nM.

For the compound `CC(=O)C1=C(C)NC(C)=C(C(=O)OCc2ccccc2)C1c1csc2ccccc12` (stereo not shown) [Example B6, Benzyl 5-acetyl-4-(benzo[b]thiophen-3-yl)-2,6-dimethyl-1,4-dihydro-pyridine-3-carboxylate], the IC50 was 100 to 1000 nM.

Consider `CC(=O)C1=C(C)NC(C)=C(C(=O)OCC2CC2)C1c1csc2ncccc12` (stereo not shown) [Example C24, Cyclopropylmethyl 5-acetyl-2,6-dimethyl-4-(thieno[2,3-b]pyridin-3-yl)-1,4-dihydropyridine-3-carboxylate], for which the IC50 was under 100 nM.
